Values joined by “and” are separate entries in the source; they are usually repeats but may differ in a detail not shown here. Equal values may be shown once. Read-outs that look alike come from different tables or passages of the source.
How the values were obtained:
Mtb-infected J774 cells = conditions: 10 μM, 24 hours, 5 days post-infection
CYP2D6 = CYP2D6 (Homo sapiens, UniProt P10635); assay: Human cytochrome P450 inhibition, 2D6; type: in vitro ADME; conditions: read-out: % inhibition of CYP 2D6
Method: (§1) Assays examining mouse and human liver microsomal stability, kinetic aqueous solubility, mouse and human plasma protein binding and stability, and human cytochrome P450 inhibition characteristics of the compounds were run by BioDuro (San Diego, CA), using standard protocols as previously described [37]. hERG inhibition assays were also performed by BioDuro.

[1] = Human liver microsomal stability; type: in vitro ADME; conditions: human liver microsomes; read-out: half-life (t1/2) in human liver microsomes
Mouse plasma stability = type: in vitro ADME; conditions: 5-h incubation
CYP2C9 = CYP2C9 (Homo sapiens, UniProt P11712); assay: Human cytochrome P450 inhibition, 2C9; type: in vitro ADME; conditions: read-out: % inhibition of CYP 2C9
Method: as §1

[2] = system: CDC1551(rv2390c′::GFP) reporter Mtb strain; conditions: for Normalized % induction: Fig. 2C, DMSO = 100
[3] = system: Mtb growth in J774 macrophage-like cells; assay: J774 infection in 96-well plates, mKO fluorescence 6 days post-infection; type: cell-based, Mycobacterium tuberculosis; conditions: for % Growth: Fig. 2D, DMSO = 100
Procedure, shortened: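 J774 cells infected with mKO-expressing log-phase Mtb (40 μl at OD600 = 0.2 per well) and treated with compound at 10 μM final (0.1% DMSO). mKO fluorescence (ex 543/em 565 nm) read at infection and 6 days later at 37 °C, 5% CO2; growth expressed relative to DMSO controls as 100%.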

[4] = system: macrophage phagosomal proteolytic activity in BMDMs; assay: Phagosomal maturation assay, DQ-BSA/AF594 beads (proteolysis readout); type: cell-based, mouse; conditions: for DQ-BSA/AF594, Average: average of 4 replicates
Method: Carboxyfluorescein (pH readout), DQ-BSA/Alexa Fluor 594 (AF594) (proteolysis readout), and BAC/AF594 (Cl^− readout) beads were generated essentially as previously described, except that 10,10′-Bis[3-carboxylpropyl]-9,9′-biacridinium dinitrate di-NHS ester (BAC-SE) was purchased from emp Biotech LLC. BMDMs were isolated from C57BL/6J mice (The Jackson Laboratory) and maintained as described above. A quantity of 2 × 10^5 macrophages/well were seeded into 96-well clear bottom black plates and utilized in assays 1 to 2 days post-seeding. […] Assay buffer consisted of PBS (pH 7.2), supplemented with 5% FBS, 5 mM dextrose, 1 mM CaCl2, 2.7 mM KCl, and 0.5 mM MgCl2 in the case of assays with the carboxyfluorescein or DQ-BSA/AF594 beads. For assays with the BAC/AF594 beads, assay buffer consisted of PBS (pH 7.2), supplemented with 5% FBS, 5 mM dextrose, 1 mM calcium acetate, 1.35 mM K2SO4, and 0.5 mM MgSO4 [9]. Sensor beads at approximately 2 to 5 beads/macrophage in appropriate assay buffer were finally added, with data acquisition on a Biotek Synergy H1 microplate reader with bottom read signal detection started within 2 to 3 minutes of bead addition. Excitation/emission wavelengths were 450 nm/520 nm and 490 nm/520 nm for carboxyfluorescein, 490 nm/520 nm for DQ-BSA, 365 nm/505 nm for BAC, and 590 nm/617 nm for AF594. Each experiment was run with a total of 3 to 5 replicate wells/condition, with temperature maintained at 37°C throughout the assay. Wells were read every 2 minutes for 2 hours for the carboxyfluorescein bead assays, every 2 minoutes for 4 hours for the DQ-BSA/AF594 bead assays, and every 1 minute for 2 hours for the BAC/AF594 bead assays. Analyses of the results were performed as previously described.

CYP2C19 = CYP2C19 (Homo sapiens, UniProt P33261); assay: Human cytochrome P450 inhibition, 2C19; type: in vitro ADME; conditions: read-out: % inhibition of CYP 2C19
Method: as §1

[5] = system: Mtb growth in J774 murine macrophage-like cells; assay: microbe, parasite or virus in culture; type: cell-based, Mycobacterium tuberculosis; conditions: for NPI (Mtb growth in J774 cells), average: Fig 1F

Sequence of CYP2C19 (P33261 whole entry): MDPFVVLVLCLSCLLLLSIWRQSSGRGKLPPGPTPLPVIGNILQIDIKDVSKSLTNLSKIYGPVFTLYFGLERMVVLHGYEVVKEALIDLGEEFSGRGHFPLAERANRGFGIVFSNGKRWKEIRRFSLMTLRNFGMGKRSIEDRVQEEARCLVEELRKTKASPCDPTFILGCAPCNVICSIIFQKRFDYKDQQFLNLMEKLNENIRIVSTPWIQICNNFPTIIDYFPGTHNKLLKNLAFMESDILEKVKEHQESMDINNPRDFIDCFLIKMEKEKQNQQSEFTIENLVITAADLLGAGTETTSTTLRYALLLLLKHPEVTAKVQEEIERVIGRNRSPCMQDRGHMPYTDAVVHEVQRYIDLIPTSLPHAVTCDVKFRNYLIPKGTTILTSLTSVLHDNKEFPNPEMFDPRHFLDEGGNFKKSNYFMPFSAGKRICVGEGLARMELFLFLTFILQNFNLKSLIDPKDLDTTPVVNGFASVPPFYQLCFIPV
Sequence of CYP2D6 (P10635 whole entry): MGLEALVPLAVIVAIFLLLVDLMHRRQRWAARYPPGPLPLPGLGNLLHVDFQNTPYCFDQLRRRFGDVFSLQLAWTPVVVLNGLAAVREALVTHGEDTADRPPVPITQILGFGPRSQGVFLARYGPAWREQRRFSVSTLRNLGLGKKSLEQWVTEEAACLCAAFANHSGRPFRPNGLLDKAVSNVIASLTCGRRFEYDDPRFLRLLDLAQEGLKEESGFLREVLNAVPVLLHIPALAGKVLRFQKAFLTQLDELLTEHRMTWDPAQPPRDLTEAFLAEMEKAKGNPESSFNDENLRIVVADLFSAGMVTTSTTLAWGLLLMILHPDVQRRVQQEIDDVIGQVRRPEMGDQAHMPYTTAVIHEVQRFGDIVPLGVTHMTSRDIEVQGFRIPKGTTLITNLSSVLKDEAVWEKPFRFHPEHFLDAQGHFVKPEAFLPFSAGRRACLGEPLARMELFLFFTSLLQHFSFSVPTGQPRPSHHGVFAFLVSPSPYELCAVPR
Sequence of CYP2C9 (P11712 whole entry): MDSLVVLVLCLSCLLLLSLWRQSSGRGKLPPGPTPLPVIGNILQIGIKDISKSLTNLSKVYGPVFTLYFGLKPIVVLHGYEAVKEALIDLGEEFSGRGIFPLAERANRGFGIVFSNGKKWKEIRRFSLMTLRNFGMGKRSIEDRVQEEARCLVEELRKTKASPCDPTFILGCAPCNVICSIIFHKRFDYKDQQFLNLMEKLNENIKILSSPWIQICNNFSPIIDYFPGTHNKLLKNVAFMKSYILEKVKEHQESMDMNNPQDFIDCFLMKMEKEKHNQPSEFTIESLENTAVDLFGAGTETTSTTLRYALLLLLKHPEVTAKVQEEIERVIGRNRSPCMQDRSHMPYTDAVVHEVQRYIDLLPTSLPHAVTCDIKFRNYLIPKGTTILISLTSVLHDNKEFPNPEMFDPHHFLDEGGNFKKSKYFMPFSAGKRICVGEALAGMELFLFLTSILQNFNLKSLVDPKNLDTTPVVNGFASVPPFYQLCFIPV

In the case of `CCSc1ncc(CN2CCN(c3nc4ccccc4o3)CC2)cn1` [C6, 2-(4-((2-(ethylthio)pyrimidin-5-yl)methyl)piperazin-1-yl)benzo[d]oxazole], the “Accumulation in Mtb-infected J774 cells” value (Mtb-infected J774 cells) is reported as “confirmed C6 accumulation”, the inhibition at 10 µM (CYP2D6) is reported as 10.5% and the half-life [1] is reported as 37.6 min. It also gave a remaining at 5 h (Mouse plasma stability) of over 99.9%, an inhibition at 10 µM (CYP2C9) of 25.7% and a Normalized % induction ([2]; average of 3 replicates) of 141.019%. For the same compound, the Normalized % induction ([2]; individual replicates) was 121.516% and 141.974% and 159.566%, the “Ability to increase rv2390c′::GFP reporter signal in high [Cl−]” value ([2]; pH 7) was “increased rv2390c′::GFP reporter signal” and the “% growth of Mtb in J774 cells, average” value ([3]; 10 μM compound, 6 days post-infection, DMSO = 100%, Fig 1H) was 40.8112%. For the same compound, the “Inhibition of Mtb growth in J774 cells” value ([3]; 10 μM, 6 days post-infection) was “Mtb growth inhibition”, the “% Growth” value ([3]; average of 4 replicates) was 56.2334% and the “% Growth” value ([3]; individual replicates) was 53.4835% and 56.5013% and 56.5506% and 58.3983%. For the same compound, the “Effect on macrophage phagosomal proteolytic activity” value ([4]; 10 μM, uninfected BMDMs) was “did not affect”, the “DQ-BSA/AF594, single replicates (Rep 1-4)” value (from here on “DQ-BSA/AF594 … (Rep 1-4)”) ([4]; Time 0 minutes) was 0.14 and 0.1347 and 0.1424 and 0.1346 and the “DQ-BSA/AF594 … (Rep 1-4)” value ([4]; Time 2 minutes) was 0.135 and 0.1275 and 0.1349 and 0.128. The “DQ-BSA/AF594 … (Rep 1-4)” value ([4]; Time 4 minutes) was 0.1412 and 0.1359 and 0.1424 and 0.1318, the “DQ-BSA/AF594, Average” value ([4]; time 0 minutes) was 0.1379 and the “DQ-BSA/AF594, Average” value ([4]; time 2 minutes) was 0.1314. For the same compound, the “DQ-BSA/AF594, Average” value ([4]; time 4 minutes) was 0.1378, the “DQ-BSA/AF594 … (Rep 1-4)” value ([4]; time 6 minutes) was 0.1434 and 0.1398 and 0.1395 and 0.1344 and the “DQ-BSA/AF594, Average” value ([4]; time 6 minutes) was 0.1393. The “DQ-BSA/AF594 … (Rep 1-4)” value ([4]; time 8 minutes) was 0.1391 and 0.1428 and 0.1447 and 0.1317, the “DQ-BSA/AF594, Average” value ([4]; time 8 minutes) was 0.1396 and the “DQ-BSA/AF594 … (Rep 1-4)” value ([4]; time 10 minutes) was 0.146 and 0.145 and 0.1422 and 0.1332. For the same compound, the “DQ-BSA/AF594, Average” value ([4]; time 10 minutes) was 0.1416, the “DQ-BSA/AF594 … (Rep 1-4)” value ([4]; time 12 minutes) was 0.1443 and 0.1415 and 0.1428 and 0.1313 and the “DQ-BSA/AF594, Average” value ([4]; time 12 minutes) was 0.14. For the same compound, the “DQ-BSA/AF594 … (Rep 1-4)” value ([4]; time 14 minutes) was 0.1461 and 0.1457 and 0.1422 and 0.1412, the “DQ-BSA/AF594, Average” value ([4]; time 14 minutes) was 0.1438 and the “DQ-BSA/AF594 … (Rep 1-4)” value ([4]; time 16 minutes) was 0.1457 and 0.1504 and 0.1476 and 0.1404. The “DQ-BSA/AF594, Average” value ([4]; time 16 minutes) was 0.146, the “DQ-BSA/AF594 … (Rep 1-4)” value ([4]; time 18 minutes) was 0.152 and 0.1539 and 0.1536 and 0.1434 and the “DQ-BSA/AF594, Average” value ([4]; time 18 minutes) was 0.1507. For the same compound, the “DQ-BSA/AF594 … (Rep 1-4)” value ([4]; time 20 minutes) was 0.1544 and 0.1557 and 0.1584 and 0.1468, the “DQ-BSA/AF594, Average” value ([4]; time 20 minutes) was 0.1538 and the “DQ-BSA/AF594 … (Rep 1-4)” value ([4]; time 22 minutes) was 0.1647 and 0.1693 and 0.1637 and 0.1551. The “DQ-BSA/AF594, Average” value ([4]; time 22 minutes) was 0.1632, the “DQ-BSA/AF594 … (Rep 1-4)” value ([4]; time 24 minutes) was 0.178 and 0.18 and 0.1857 and 0.1719 and the “DQ-BSA/AF594, Average” value ([4]; time 24 minutes) was 0.1789. For the same compound, the “DQ-BSA/AF594 … (Rep 1-4)” value ([4]; time 26 minutes) was 0.2064 and 0.2113 and 0.205 and 0.1944, the “DQ-BSA/AF594, Average” value ([4]; time 26 minutes) was 0.2043 and the “DQ-BSA/AF594 … (Rep 1-4)” value ([4]; time 28 minutes) was 0.2506 and 0.2446 and 0.2477 and 0.2339. For the same compound, the “DQ-BSA/AF594, Average” value ([4]; time 28 minutes) was 0.2442, the “DQ-BSA/AF594 … (Rep 1-4)” value ([4]; time 30 minutes) was 0.3139 and 0.29 and 0.311 and 0.2857 and the “DQ-BSA/AF594, Average” value ([4]; time 30 minutes) was 0.3002. The inhibition at 10 µM (CYP2C19) was 30.3%, the “NPI (Mtb growth in J774 cells), average” value ([5]; 0.078125 µM, 5 µM rifampicin = 100% inhibition) was -7.09% and the “NPI (Mtb growth in J774 cells), average” value ([5]; 0.15625 µM) was -2.13%. For the same compound, the “NPI (Mtb growth in J774 cells), average” value ([5]; 0.3125 µM) was -0.93%, the “NPI (Mtb growth in J774 cells), average” value ([5]; 0.625 µM) was -0.1% and the “NPI (Mtb growth in J774 cells), average” value ([5]; 1.25 µM) was 17.45%. The “NPI (Mtb growth in J774 cells), average” value ([5]; 2.5 µM) was 26.3%, the “NPI (Mtb growth in J774 cells), average” value ([5]; 5 µM) was 38% and the “NPI (Mtb growth in J774 cells), average” value ([5]; 10 µM) was 40.45%. The “NPI (Mtb growth in J774 cells), average” value ([5]; 20 µM) was 53.6%, the inhibition at 10 µM ([5]; Mycobacterium tuberculosis, J774, 144 h, read-out: J774 tertiary assay % inhibition compared to Rif at 10 µM compound) was 40.5 ± 0.6% and the inhibition at 20 µM ([5]; Mycobacterium tuberculosis, J774, 144 h, read-out: J774 tertiary assay % inhibition compared to Rif at 20 µM compound) was 53.6 ± 2.7%.

— publication PMC8351955, “Targeting Mycobacterium tuberculosis response to environmental cues for the development of effective antitubercular drugs” (PLoS Biology, 2021)
